From US5686417A, “Peptide T and related peptides in the treatment of HTLV-1 myelopathy and multiple sclerosis” (Reed MacFadden, Ltd., priority 1995, dated 1997)

Key:
[1] = test system: multiple sclerosis patients; experiment: case treatments of multiple sclerosis (Examples 2-5); type: in vivo, human
Protocol: A person was diagnosed as having MS after presenting with weakness, loss of balance, double vision, and paraesthesia in their right arm. They were treated with prednisone and later with physiotherapy. […] Tone was increased in both lower limbs and they had bilateral ankle clonus. Deep tendon reflexes were 2+ in the arms, 3+ in both knees and ankles and the planter responses were extensor.
They were started on 10 milligram subcutaneous injections of Peptide T daily. […] Their frequency of nocturia was reduced, fine motor control improved, stuttering decreased, their legs were less spastic and they could stand with minimal support.
A person was diagnosed with optic neuritis secondary to multiple sclerosis after presenting with numbness, impaired motor function, and blurred vision (20/300 bilaterally). Their somatic neurological examination was within normal limits. Minor episodes of numbness and impaired speech, balance and co-ordination had occurred over 6 months, as well as headache and loss of vision.
Peptide T therapy was started.
A person with their first multiple sclerosis episode had optic neuritis and complete blindness in the right eye for 2 weeks, numbness in their right leg and then both legs. Their symptoms worsened. […] They had worsening of their ataxia and blurred vision. They were given prednisone 80 milligrams per day. […] The patient complained of oscillopsia. […] Findings were typical of demyelination consistent with MS. […] The tone was increased in their lower limbs and they had non-sustained ankle clonus bilaterally. Their knee jerk was increased on the right compared to the left. Plantar responses were both upgoing. They had decreased position, vibration, light touch and cold sensation in the feet compared to the hands.
About 2 months later the patient was started on Peptide T 10 milligrams subcutaneously daily. […] They experienced improved feelings in their fingers, fine movements of their hands and improved cognitive function.
A person with a history of dizziness, ataxia, episodes of vertigo, impairment of motor function and generalized weakness of the legs was treated with dilantin and admitted to hospital. […] They were reassessed about 2 years later for episodes of dizziness, and complaints of leg spasms. […] Planter response was downgoing and they had upwards gaze vertical nystagmus as previously noted.

[2] = in vivo; cited from earlier work
[3] = test system: mouse fetal hippocampal neurons; conditions: mouse hippocampal neuronal culture; cited from earlier work
protein kinase C = conditions: cited from earlier work
rat spinal cord = conditions: spinal administration; cited from earlier work

Compound: NCC(CC(=O)O)c1ccc(Cl)cc1 (centres unmarked) [Lioresal (Baclofen), Baclofen]
- response to earlier treatment ([1]; Example 2, before Peptide T): some improvement

Compound: C[C@@H](N)C(=O)N[C@@H](CO)C(=O)N[C@H](C(=O)N[C@H](C(=O)N[C@H](C(=O)N[C@@H](CC(N)=O)C(=O)N[C@@H](Cc1ccc(O)cc1)C(=O)N[C@H](C(N)=O)[C@@H](C)O)[C@@H](C)O)[C@@H](C)O)[C@@H](C)O [Peptide T, D-Ala-Ser-Thr-Thr-Thr-Asn-Tyr-Thr- Amide]
- exit from the brain [2]: diffusion only

Compound: C[C@]12C=CC(=O)C=C1CC[C@@H]1[C@@H]2C(=O)C[C@@]2(C)[C@H]1CC[C@]2(O)C(=O)CO [prednisone]
- symptomatic response ([1]; Example 4, 150 mg daily, while off Peptide T): minimal symptomatic improvement
- ataxia and some visual problems ([1]; Example 4, 80 milligrams per day): seemed to improve
- response to treatment ([1]; Example 4, first course, dose not stated): some improvement

Compound: vasoactive intestinal peptide [VIP]
- effect on gp120-induced neurotoxicity [3]: completely eliminated
- cellular effects via protein kinase C (protein kinase C): regulation of protein kinase C
- analgesia, fail-flick latency test and tail-shock induced vocalization test (rat spinal cord): produced analgesia
